# Measured values published in US6582714B1, “Article for insert control by passive evaporation of an active ingredient” (priority 1995, dated 2003).
# Test system: A. aegypti mosquitoes
# Assay: Olfactometer test (repellency from target air stream)
# Assay type: in vivo
# Settings: dose at which 90% of control population driven from target; 28 x 10 cm filter paper; female mosquitoes
# Text: The olfactometer test provides a means for measuring the effect of a volatile active ingredient on flying insects under precisely controlled conditions. Mosquitoes are used as the test insect. In this and the other Examples, below, the mosquitoes were A. aegypti. The olfactometer used for the olfactory tests described below generates two uniform, laminar flow air streams. These air streams consist of a target air stream superimposed upon and centered within a carrier air stream.
# The olfactometer provides a square testing surface with an area of 929 cm^2. The testing area consists of a circular target area of 42 cm^2 centered on a square background surface area of 887 cm^2. In the tests described, a 200 ml/min flow of carbon dioxide was introduced into the carrier air stream to activate the mosquitoes. […] The flow rate of the carrier air stream was 300 to 350 liters/min. […] Elevated temperature and humidity at the level described for the target air stream are known to be attractive to mosquitoes. The flow rate of the target air stream was 12 liters/min.
# The olfactometer has an air flow duct through which the carrier air flow strewn passes. A glass cylinder having one closed and one open end, an internal diameter of 6 cm and a depth of 14 cm is located within the air flow duct, with the longitudinal axis of the glass cylinder oriented parallel to the direction of flow of the carrier air flow stream, with the open end of the cylinder pointing down stream. The target air stream is generated by releasing a flow of temperature and humidity conditioned air into the glass cylinder near its closed end, from which point the air flows the length of the glass cylinder to exit at its open end.
# Active insect control ingredients to be tested are impregnated in a filter paper test substrate (Grade 615 from VWR Scientific Inc.) having a length of 28 cm and a width of 10 cm. The filter paper test substrate is folded into a fluted cylinder and inserted coaxially within the glass cylinder to rest at a location between the point where the air is released into the glass cylinder and the open end of the glass cylinder. By this arrangement, the target air stream is caused to pass over the surface of the filter paper test substrate so that any active insect control ingredient present in the filter paper test substrate may evaporate into the target air stream before the target air stream exits the glass cylinder to continue, embedded within the flow of the carrier air stream.
# Cubic test cages having 30.5 cm edges were constructed of four glass panels, with two opposing sides of the cubic test cages being open. One open side was designated the test panel and was covered with an airflow-transmitting, mosquito-retaining mesh. The opposite open side was covered with a closeable sleeve made of a tubular, open-weave, mosquito-retaining fabric well known in the art as “stockinet.” For any given test, the test cage normally contained from 250 to 350 female mosquitoes.
# The test cage was placed in the air stream with the test panel facing and perpendicular to the direction of flow of the air streams of the olfactometer. In order to allow the mosquitoes to become activated by the carbon dioxide of the air streams, the test cage first was placed in the olfactometer for an initial 5 minute conditioning exposure. The test cage then was removed from the olfactometer for 3 minutes and then placed back in the olfactometer for a second 5 minute conditioning exposure. The test cage was again removed from the olfactometer for 3 minutes, during which time a control filter paper test substrate was inserted within the glass cylinder of the olfactometer. The test cage was then placed on the olfactometer for a 10 minute control exposure. The same procedure was repeated, using each time a filter paper test substrate impregnated with increasing amounts of active insect control ingredient. […]
row,Molecule,mg to reach RD90
1,C=CCC1=C(C)C(OC(=O)[C@@H]2[C@@H](C=C(C)C)C2(C)C)CC1=O (stereo partly shown) [Bioallethrin],5.5 milligrams/filter paper test substrate
2,CC1(C)C(C=C(Cl)Cl)C1C(=O)OC(C#N)c1ccc(F)c(Oc2ccccc2)c1 (stereo not shown) [Cyfluthrin],>1000 milligrams/filter paper test substrate
3,CC(C)=CC1C(C(=O)OC(C#N)c2cccc(Oc3ccccc3)c2)C1(C)C (stereo not shown) [Cyphenothrin],˜1000 milligrams/filter paper test substrate
4,"CCN(CC)C(=O)c1cccc(C)c1 [DEET, N,N-diethyl-meta-toluamide]",95 milligrams/filter paper test substrate
5,CC1(C)C(C=C(Cl)Cl)C1C(=O)OCc1cccc(Oc2ccccc2)c1 (stereo not shown) [Permethrin],>1000 milligrams/filter paper test substrate
6,"CNC(=O)Oc1ccccc1OC(C)C [Propoxur (Baygon), Propoxur]",>120 milligrams/filter paper test substrate
7,Pentecychlothrin [Pentecychlothrin (Zhong X1)],8.1 milligrams/filter paper test substrate

# Same assay, conditions: ratio of weight of ingredient versus weight of DEET to achieve RD90; 25° C.
row,Molecule,WEIGHT INDEX
1,C=CCC1=C(C)C(OC(=O)[C@@H]2[C@@H](C=C(C)C)C2(C)C)CC1=O (stereo partly shown) [Bioallethrin],0.058
2,CC1(C)C(C=C(Cl)Cl)C1C(=O)OC(C#N)c1ccc(F)c(Oc2ccccc2)c1 (stereo not shown) [Cyfluthrin],>10.5
3,CC(C)=CC1C(C(=O)OC(C#N)c2cccc(Oc3ccccc3)c2)C1(C)C (stereo not shown) [Cyphenothrin],˜10.5
4,"CCN(CC)C(=O)c1cccc(C)c1 [DEET, N,N-diethyl-meta-toluamide]",1.00
5,CC1(C)C(C=C(Cl)Cl)C1C(=O)OCc1cccc(Oc2ccccc2)c1 (stereo not shown) [Permethrin],>10.5
6,"CNC(=O)Oc1ccccc1OC(C)C [Propoxur (Baygon), Propoxur]",>1.26
7,Pentecychlothrin [Pentecychlothrin (Zhong X1)],0.085

# Test system: A. aegypti mosquitoes
# Assay: Activity index calculation (volatility index x weight index)
# Settings: volatility index multiplied by weight index; DEET = 1.00
# Procedure: The “activity index” is obtained by the multiplying the volatility index and the weight index. The activity index is an attempt to predict the combined effect of volatility and potency by weight in the usefulness of an insect control active ingredient for insect control of flying insects by passive evaporation. The following activity indices were calculated from the volatility and weight indices given, above: […]
row,Molecule,ACTIVITY INDEX
1,C=CCC1=C(C)C(OC(=O)[C@@H]2[C@@H](C=C(C)C)C2(C)C)CC1=O (stereo partly shown) [Bioallethrin],0.0049
2,CC(C)=CC1C(C(=O)OC(C#N)c2cccc(Oc3ccccc3)c2)C1(C)C (stereo not shown) [Cyphenothrin],˜0.011
3,"CCN(CC)C(=O)c1cccc(C)c1 [DEET, N,N-diethyl-meta-toluamide]",1.00
4,CC1(C)C(C=C(Cl)Cl)C1C(=O)OCc1cccc(Oc2ccccc2)c1 (stereo not shown) [Permethrin],>0.004
5,Pentecychlothrin [Pentecychlothrin (Zhong X1)],0.0018

# Test system: not listed separately
# Assay: Volatility index calculation (concentration in air from vapor pressure)
# Assay type: physicochemical
# Settings: calculated from vapor pressure by ideal gas equation; 20 to 25° C.
row,Molecule,CONCENTRATION IN AIR
1,C=CCC1=C(C)C(OC(=O)[C@@H]2[C@@H](C=C(C)C)C2(C)C)CC1=O (stereo partly shown) [Bioallethrin],1.46 × 10^−6 grams per liter
2,CC1(C)C(C=C(Cl)Cl)C1C(=O)OC(C#N)c1ccc(F)c(Oc2ccccc2)c1 (stereo not shown) [Cyfluthrin],<7.11 × 10^−9 grams per liter
3,CC(C)=CC1C(C(=O)OC(C#N)c2cccc(Oc3ccccc3)c2)C1(C)C (stereo not shown) [Cyphenothrin],1.85 × 10^−8 grams per liter
4,"CCN(CC)C(=O)c1cccc(C)c1 [DEET, N,N-diethyl-meta-toluamide]",1.72 × 10^−5 grams per liter
5,CC1(C)C(C=C(Cl)Cl)C1C(=O)OCc1cccc(Oc2ccccc2)c1 (stereo not shown) [Permethrin],7.11 × 10^−9 grams per liter
6,Pentecychlothrin [Pentecychlothrin (Zhong X1)],3.64 × 10^−7 grams per liter

# Same assay, conditions: concentration in the air relative to DEET at 20 to 25° C.
row,Molecule,VOLATILITY INDEX
1,C=CCC1=C(C)C(OC(=O)[C@@H]2[C@@H](C=C(C)C)C2(C)C)CC1=O (stereo partly shown) [Bioallethrin],0.085
2,CC1(C)C(C=C(Cl)Cl)C1C(=O)OC(C#N)c1ccc(F)c(Oc2ccccc2)c1 (stereo not shown) [Cyfluthrin],<0.00041
3,CC(C)=CC1C(C(=O)OC(C#N)c2cccc(Oc3ccccc3)c2)C1(C)C (stereo not shown) [Cyphenothrin],0.0011
4,"CCN(CC)C(=O)c1cccc(C)c1 [DEET, N,N-diethyl-meta-toluamide]",1.00
5,CC1(C)C(C=C(Cl)Cl)C1C(=O)OCc1cccc(Oc2ccccc2)c1 (stereo not shown) [Permethrin],0.00041
6,Pentecychlothrin [Pentecychlothrin (Zhong X1)],0.021
